# Assay results: patent US20080261201A1, “Methods and compounds to alter virus infection” (priority 2006, published 2008)
# System: Rac1
# Experiment: HA-Rac1 incorporation into vesicular fractions of MCF-7 cells, Western blot
# Type: cell-based
# Details: IL-1β 1 ng/mL for 20 minutes
# Description: Buoyant density centrifugation was used for subcellular fractionation and isolation of endosomes containing Nox2 activity. Cells were washed twice with ice-cold PBS and scrapped into a 1.5 mL microfuge tube using the same buffer. The cells were pelleted and resuspended in homogenization buffer (HMB) containing 0.25 M sucrose, 20 mM HEPES pH 7.4, 1 mM EDTA, and an EDTA-free protease inhibitor cocktail. The cells were homogenized using nitrogen cavitation in a cell disruption high-pressure chamber (Parr instruments, Moline, Ill.). The pressure was raised to 650-psi for 5 minutes and released suddenly. The homogenate was centrifuged at 3000×g for 15 minutes to pellet unbroken cells, nuclei, and heavy mitochondria. The heavy mitochondrial supernatant (HMS) was bottom loaded into an iodixanol discontinuous gradient in a 12.5 mL SW41Ti ultracentrifuge tube using a previously described method with modifications (Graham et al., 1994; Xia et al., 1998).
# The discontinuous gradient was composed of 1.25 mL HMB without EDTA followed by bottom loading of the following % iodixanol steps sequentially with 1.0 mL 2.5%, 1.0 mL 5%, 1.5 mL 9%, 1.5 mL 14%, 2.5 mL 19%, 1.5 mL 26%, and finally the HMS in 2 mL 32%. Iodixanol concentrations were prepared fresh using a 50% iodixanol working solution (WS) diluted with HMB without EDTA. […]
substance,measurement,value
IL-1β: interleukin used to stimulate MCF-7 cells,HA-Rac1 incorporation into crude vesicular fractions,significantly enhanced
